The text below walks through data of US20260022100A1, “NAV1.8 INHIBITOR” (Wuhan Humanwell Innovative Drug Research and Development …, priority 2022, published 2026).

One data set addresses Nav1.8 ion channel (Homo sapiens (Human), UniProt Q9Y5Y9). In words: Inhibitory activity on Nav1.8 ion channel, whole-cell patch-clamp on HEK293/Nav1.8. The class given is cell-based. The conditions noted are these: HEK293/Nav1.8, whole-cell patch clamp, holding -80 mV, 1 μM TTX. Here is the method: Reagents were purchased from Sigma (St. Louis, MO) except NaOH and KOH for acid-base titration. The final concentrations of the test compounds were all prepared on the day of the test and then dissolved in an extracellular fluid. The extracellular fluid (mM) was NaCl, 137; KCl, 4; CaCl2), 1.8; MgCl2, 1; HEPES, 10; glucose 10; and pH 7.4 (NaOH titration). All test and control compound solutions contained 1 μM TTX. The intracellular fluid (mM) was: aspartic acid, 140; magnesium chloride, 2; ethylene glycol tetraacetic acid (EGTA), 11; and N-2-hydroxyethylpiperazine-N′-2-ethanesulfonic acid (HEPES), 10. The pH was adjusted to 7.4 with cesium hydroxide.
The test compounds were dissolved in dimethylsulfoxide (DMSO) at a concentration of 9 mM. On the day of the test, the compounds were then dissolved in the extracellular fluid and prepared into the required concentration.
The cells were transferred to a perfusion chamber and perfusion was carried out using the extracellular fluid. The intracellular fluid was thawed on the day of the experiment. The electrodes were produced by pulling with PC-10 (Narishige, Japan). Whole-cell patch-clamp recording was carried out. Noise was filtered at one fifth of the sampling frequency. The intracellular fluid with ¼ length of the electrode tube was added into the electrode, and the electrode was installed on a probe. The required Protocol was set, the interface was adjusted to Membrane test, and Stage was adjusted to Bath. A positive pressure was applied in the electrode. The tip of the electrode was contacted with the cell. The three-way valve of the air extractor was adjusted to a three-way state. A negative pressure was then applied to the electrode, so that the electrode and the cell formed a high-resistance seal. Stage was adjusted to Patch, and leak was controlled within −200 pA. A negative pressure was successively applied, so that cell membranes were broken, and a current path was formed. Perfusion was carried out by opening the suction filtration device and the extracellular fluid valve. The cell current was observed, and administration was started when the cell current was stable (at least 3 sweep current curves were overlapped). Administration was performed from low concentration to high concentration. The administration time of each concentration was not less than 2 min, and when the current was stable, the concentration was changed for administration.
For administration of the test samples, perfusion was carried out using a perfusion system utilizing the self gravity. […] During the period, the CV % of all peak current amplitudes should be less than 10% to exclude up and down fluctuations of the initial current. The average of the peak current amplitudes recorded for the last 10 times during the initial recording served as the current peak of the negative control. After the initial current was stable, the test samples were dosed starting from a low concentration until the 10 recorded peak currents were again stable or the peak currents were “constant” after and before administration after continuous administration for 5 min. We defined the following two cases as “stable” or “constant”: 1) if the absolute average of the peak current for 10 consecutive scans exceeded 200 pA and the CV value was less than 10%, 2) or the average of the peak current for 10 consecutive scans was between 200 pA and 50 pA and the CV value was less than 30%. The next detection of higher concentration was then given.
The average of the peak current of the last 10 scans of each concentration was taken as the peak current for that concentration for data analysis. If the stable state was not reached within 5 min, the peak current average of the last 10 scans at that time was used for data analysis as the peak current for that concentration. At the same time, the cells were discarded and no longer used for detection of higher concentration. At least two cells were tested per concentration of the compounds. […]
In general terms: Patch clamp records ionic current or voltage across a cell membrane.

The nature of data set [1]: Pharmacokinetic assay in mice. The class given is in vivo. To be noted: male, ICR, mouse, plasma, oral intragastric administration, 10 mg/kg. The method, then:
Pharmacokinetic assay in mice was performed, wherein the mice used were 3 male ICR mice and fasted overnight. The mice were orally intragastrically dosed with the medicament (10 mg/kg). Blood was collected before administration and at 15 min, 30 min and 1 h, 2 h, 4 h, 6 h, 8 h, and 24 h after administration. Blood samples were centrifuged at 8000 rpm for 6 min at 4° C., and plasma was collected and stored at −20° C. The plasma at each time point was taken, and 3-5 times its amount of an acetonitrile solution containing an internal standard was added for mixing. The mixture was vortexed for 1 min and then centrifuged at 13000 rpm at 4° C. for 10 min. The supernatant was taken, and 3 times its amount of water was added for mixing. A proper amount of the resulting mixture was taken for LC-MS/MS analysis. The major pharmacokinetic parameters were analyzed using a non-compartmental model in the WinNonlin 7.0 software.

Data set [2] relates to spinal nerve-ligated rats. The data set is described as follows: Spinal nerve ligation neuropathic pain model in rats (Von-Frey mechanical pain threshold). The class given is in vivo, male SD rat. To be noted: SNL rats. From the text:
A male SD rat weighing 180-220 g was placed on an operating table in a prone position after anesthesia. An incision was made along the spinal column near the hip bone of the animal, and the fascia and muscle were separated. The L5 transverse process was carefully snapped off with a tweezer. The L5 nerve was separated with a glass needle, and the L5 nerve was ligated with 5-0 ligature. The muscle and the skin were sutured and disinfected with iodophor. After 14 days of modeling, the animals were divided into different groups, 10 animals each group. Different compounds were separately orally administered intragastrically. Mechanical pain thresholds of the animals were detected with Von-Frey fiber filaments at different time points after administration. The specific administration dose and detection time are detailed in Table 3 below.
The mechanical pain threshold detection method: The pelma of the hind limb to be tested of the test animal was continuously stimulated using the Von-Frey fiber filament to bend the fiber filament, and the foot shrinking reaction of the animal was observed. The tested animals were stimulated one by one according to the sequence of the gram number of the fiber filaments from small to large, and each gram number of the fiber filament was continuously used for stimulation for 5 times. If less than 3 positive reactions were present, the procedure described above was repeated using a larger grade of fiber filament, and if 3 or more positive reactions were present for the first time in the test, the fiber filament was the pain threshold for that animal (3 tests per animal for the average). Fiber filament gram number: 0.6, 1.0, 1.4, 2.0, 4.0, 6.0, 8.0, 10.0, and 15.0; the cut value was 15.0 g.

As usually defined, the IC50 is the point on the concentration scale where inhibition reaches its midpoint. For orientation: AUC(0-t) means exposure summed from dosing to a finite time, without extrapolation to infinity. The Cmax is the maximum level reached in the sampled fluid or tissue. By Tmax is commonly meant the time at which the peak concentration occurs. The half-life is the time in which the quantity being followed falls by half.

On Nav1.8 ion channel, `O=C(Nc1cnc[n+]([O-])c1)c1cc(Cl)c(C(F)(F)F)cc1Oc1ccc(OC(F)(F)F)cc1` [Compound I-2, 5-(5-Chloro-2-(4-(trifluoromethoxy)phenoxy)-4-(trifluoromethyl)benzamido)pyrimidine-1-oxide] registered an IC50 of 11 nM.

`O=C(Nc1ccc[n+]([O-])c1)c1c(Oc2ccc(F)c3c2OC(F)(F)O3)cc(C(F)(F)F)c(Cl)c1F` [Compound I-11, 3-(3-Chloro-2-fluoro-6-((2,2,7-trifluorobenzo[d][1,3]dioxol-4-yl)oxy)-4-trifluoromethyl-benzamido)pyridine 1-oxide] yielded an IC50 at Nav1.8 ion channel of 0.64 nM. In data set [1], the AUC(0-t) turned out to be 9070 ng·h/mL, the peak level (Cmax) was 2240 ng/mL, the Tmax was 1 h and the half-life is 2.18 h. The “Mechanical pain threshold (Mean ± SD), base value before modeling” value in data set [2] (100 mpk group, baseline before modeling) worked out at 13.0 ± 2.8 g. Moreover, the “Mechanical pain threshold (Mean ± SD), 3 h after administration” value in data set [2] (100 mpk oral intragastric, 3 h) is recorded as 13.6 ± 2.0 g. Moreover, in data set [2] (100 mpk oral intragastric, 6 h), the “Mechanical pain threshold (Mean ± SD), 6 h after administration” value is recorded as 12.1 ± 2.5 g.

For the molecule `O=C(Nc1ccc[n+]([O-])c1)c1cc(Cl)c(C(F)(F)F)cc1Oc1ccc(SC(F)(F)F)cc1` [Compound I-15], in data set [1], the AUC(0-t) was 539000 ng·h/mL, the concentration peaked (Cmax) at 30000 ng/mL, the Tmax came out at 8 h and the half-life was 34 h.

In turn, `COc1cc(OC(F)(F)F)ccc1Oc1cc(Cl)c(Cl)cc1C(=O)Nc1cnc[n+]([O-])c1` [Compound I-18, 5-(4,5-dichloro-2-(2-methoxy-4-(trifluoromethoxy)phenoxy)benzamido)pyrimidine 1-oxide] came in with an IC50 against Nav1.8 ion channel of 2.4 nM. Besides, in data set [1], the AUC(0-t) amounted to 3340 ng·h/mL, the peak level (Cmax) was 1390 ng/mL, the Tmax was found to be 0.5 h and the half-life is 1.22 h.

`O=C(Nc1cnc[n+]([O-])c1)c1c(Oc2ccc(OC(F)(F)F)cc2)cc(Cl)c(Cl)c1F` [Compound I-19, 5-(3,4-Dichloro-2-fluoro-6-(4-(trifluoromethoxy)phenoxy)benzamido)pyrimidine 1-oxide] came in with an IC50 against Nav1.8 ion channel of 0.98 nM. Further, in data set [1], the AUC(0-t) was 19200 ng·h/mL, the Cmax came to 8880 ng/mL, the Tmax was determined as 0.5 h and the half-life was 2 h.

For the molecule `O=C(Nc1cnc[n+]([O-])c1)c1c(Oc2ccc(OC(F)(F)F)cc2)ccc(C(F)(F)F)c1F` [Compound I-20, 5-(2-fluoro-6-(4-(trifluoromethoxy)phenoxy)-3-(trifluoromethyl)benzamido)pyrimidine 1-oxide], in data set [1], the AUC(0-t) is 96200 ng·h/mL, the concentration peaked (Cmax) at 8010 ng/mL, the Tmax was 4 h and the half-life is 2.87 h.

Turning to `[2H]C([2H])([2H])Oc1cc(F)ccc1Oc1cc(Cl)c(Cl)cc1C(=O)Nc1cnc[n+]([O-])c1` [Compound I-21, 5-(4,5-dichloro-2-(4-fluoro-2-(trideuteromethoxy)phenoxy)benzamido)pyrimidine 1-oxide], in data set [1], the AUC(0-t) was 2490 ng·h/mL, the concentration peaked (Cmax) at 1400 ng/mL, the Tmax came out at 0.5 h and the half-life was 1.32 h.

In the case of `O=C(Nc1ccc[n+]([O-])c1)c1cc(Cl)c(Cl)cc1Oc1ccc(F)c2c1OC(F)(F)O2` [Compound I-22, 3-(4,5-Dichloro-2-((2,2,7-trifluorobenzo[d][1,3]dioxol-4-yl)oxy)benzamido)-pyridine 1-oxide], the IC50 against Nav1.8 ion channel was determined as 8.15 nM. In addition, in data set [1], the AUC(0-t) was found to be 12700 ng·h/mL, the Cmax came out at 3090 ng/mL, the Tmax was 1 h and the half-life was 2.88 h.

In turn, `O=C(Nc1ccc[n+]([O-])c1)c1cc(Cl)c(C(F)(F)F)cc1Oc1ccc(F)c2c1OC(F)(F)O2` [Compound I-23, 3-(5-chloro-2-((2,2,7-trifluorobenzo[d][1,3]dioxol-4-yl)oxy)-4-(trifluoromethyl)benzamido)pyridine 1-oxide] gave an IC50 at Nav1.8 ion channel of 2.9 nM. Besides, in data set [1], the AUC(0-t) came to 37900 ng·h/mL, the Cmax is 3450 ng/mL, the Tmax was determined as 1 h and the half-life was 2.53 h.

On to `[2H]C([2H])([2H])Oc1cc(OC(F)(F)F)ccc1Oc1cc(Cl)c(Cl)cc1C(=O)Nc1cnc[n+]([O-])c1` [Compound I-24, 5-(4,5-dichloro-2-(2-(methoxy-d3)-4-(trifluoromethoxy)phenoxy)benzamido)pyrimidine 1-oxide], for which the IC50 against Nav1.8 ion channel is 2.2 nM. Also, in data set [1], the AUC(0-t) turned out to be 4560 ng·h/mL, the highest level (Cmax) was 1870 ng/mL, the Tmax amounted to 0.5 h and the half-life was 1.78 h.

On Nav1.8 ion channel, `O=C(Nc1cnc[n+]([O-])c1)c1c(Oc2ccc(OC(F)F)cc2)cc(C(F)(F)F)c(Cl)c1F` [Compound I-25, 5-(3-Chloro-6-(4-(difluoromethoxy)phenoxy)-2-fluoro-4-(trifluoromethyl)benzamido)pyrimidine 1-oxide] returned an IC50 of 2.9 nM.

Consider `[2H]C([2H])([2H])Oc1cc(F)c(F)cc1Oc1cc(C(F)(F)F)c(Cl)c(F)c1C(=O)Nc1cnc[n+]([O-])c1` [Compound I-28, 5-(3-chloro-6-(4,5-difluoro-2-(methoxy-d3)phenoxy)-2-fluoro-4-(trifluoromethyl)benzamido)pyrimidine 1-oxide], for which the half-inhibitory concentration (IC50) against Nav1.8 ion channel came to 1.3 nM.

The molecule `Cc1cc(F)ccc1Oc1cc(C(F)(F)F)c(Cl)cc1C(=O)Nc1cnc[n+]([O-])c1` [Compound I-31, 5-(5-chloro-2-(4-fluoro-2-methylphenoxy)-4-(trifluoromethyl)benzamido)pyrimidine 1-oxide] had an IC50 against Nav1.8 ion channel of 9.75 nM.

For `O=C(Nc1ccc[n+]([O-])c1)c1c(Oc2ccc(F)c3c2OC(F)(F)O3)cc(Cl)c(Cl)c1F` [Compound I-32, 3-(3,4-Dichloro-2-fluoro-6-((2,2,7-trifluorobenzo[d][1,3]dioxol-4-yl)oxy)benzamido)pyridine-1-oxide], the 50% inhibitory concentration (IC50) at Nav1.8 ion channel stood at 0.71 nM.

As for `Cc1cc(F)ccc1Oc1cc(C(F)(F)F)c(Cl)c(F)c1C(=O)Nc1cnc[n+]([O-])c1` [Compound I-34, 5-(3-chloro-2-fluoro-6-(4-fluoro-2-methylphenoxy)-4-(trifluoromethyl)benzamido)pyrimidine 1-oxide], on Nav1.8 ion channel, the IC50 was 1.4 nM.
